Experimental data from patent US20110224232A1 (Board of Regents, The University of Texas System, priority 2008, published 2011).
Values joined by “and” are separate entries in the source; they are usually repeats but may differ in a detail not shown here. Identical values can stand only once.

Experiments:
[1] = underivatized; cited from earlier work
[2] = system: invasive pulmonary aspergillosis; settings: high doses, 40 mg/kg per day; cited from earlier work
[3] = system: Aspergillus fumigatus clinical isolate 293 (AF 293); assay: Survival of A. fumigatus-infected immunosuppressed mice (Kaplan-Meier); assay type: in vivo; settings: A. fumigatus-infected female ICR mice, VOR inhalation BID 30-40 mg/kg, AmB intraperitoneal QD 1 mg/kg
Source text: Conidia were harvested from Aspergillus fumigatus clinical isolate 293 (AF 293) cultures grown on potato dextrose agar (Hardy Diagnostics, Santa Maria, Calif.) by washing and scraping agar surfaces with 0.1% Tween 80 in sterile physiological saline and filtering through sterile glass wool. Conidia were re-suspended to achieve a final inoculum of ˜1×10^9 conidia/mL, as confirmed by hemocytometer counts and serial plating.
Mice were rendered immunosuppressed by intraperitoneal cyclophosphamide (250 mg/kg) and subcutaneous cortisone acetate (250 mg/kg) two days prior to inoculation (Day −2). Both cyclophosphamide (200 mg/kg intraperitoneal) and cortisone acetate (250 mg/kg subcutaneously) were re-administered on Day +3 following inoculation. Mice also received prophylactic antibiotic therapy of ceftazidime 50 mg/kg administered sub-cutaneously on Day −2 through Day +7.
To simulate pulmonary pathogenesis, mice were placed inside an acrylic chamber, and A. fumigatus conidia were introduced by aerosolizing the conidial suspension with a small particle nebulizer (Hudson Micro Mist, Hudson RCI, Temecula, Calif.) driven by compressed air. A standard exposure time of 1 hour was used to allow for complete aerosolization of the conidial suspension. Starting inocula were assessed by colony forming unit (CFU) enumeration from mice one hour post-inoculation.
The inhaled control group received 20 minute nebulizations of 100 mg/mL CAPTISOL® solutions BID beginning on Day −2 and continuing through Day +7. The intraperitoneal AmB group received 1 mg/kg Amphotericin B deoxycholate (Apothecon, Princeton, N.J.) by intraperitoneal injection (IP) once daily (QD) on Day +1 and continuing through Day +7 (FIG. 2).
Statistical analyses were conducted as follows. Survival was plotted by Kaplan-Meier analysis, and differences in median survival and percent survival between prophylaxis groups were analyzed by the log-rank test and chi-square test, respectively, using Prism version 4 software (GraphPad, San Diego, Calif.). […] A p-value of ≦0.05 was considered statistically significant for all comparisons.

Aspergillus fumigatus [4] = assay: Pulmonary fungal burden by colony forming units in infected mice; assay type: in vivo
Experimental: (§1) Mice were monitored for an additional 5 days following discontinuation of treatment. Animals that appeared moribund prior to the end of the study were euthanized by halothane and death was recorded as occurring the next day. 12 mice were randomly selected from each group and euthanized on Day +8 for fungal burden analysis while any remaining mice were euthanized on Day +12. 2 additional mice were randomly selected from each group and euthanized on Day +8 and Day +12 for histological analysis
Lungs were homogenized in sterile saline (total volume 2 mL) supplemented with gentamicin and chloramphenicol using a tissue homogenizer (Polytron Dispensing and Mixing Technology PT 2100, Kinematica, Cincinnati, Ohio). Serial dilutions were prepared in sterile saline and plated in duplicate onto potato dextrose agar. Following 24 hours of incubation at 37° C., colonies were enumerated and colony forming units (CFU) per gram of lung tissue for each animal were calculated.
(§2) Statistical analyses were conducted as follows. Survival was plotted by Kaplan-Meier analysis, and differences in median survival and percent survival between prophylaxis groups were analyzed by the log-rank test and chi-square test, respectively, using Prism version 4 software (GraphPad, San Diego, Calif.). Differences in fungal burden endpoints (CFU/g and CE) were assessed for significance by analysis of variance with Tukey's post-test for multiple comparisons. A p-value of ≦0.05 was considered statistically significant for all comparisons.

Aspergillus fumigatus [5] = assay: Pulmonary fungal burden by real-time quantitative PCR (conidial equivalents) in infected mice; assay type: in vivo; settings: Day + 8 per table footnote
Experimental: as §1
Pulmonary fungal burden was also quantified by real-time quantitative polymerase chain reaction (qPCR) using previously described methods. Briefly, DNA was extracted from […] of lung homogenate with the use of a commercially available kit (DNeasy Tissue Kit, Qiagen, Valencia, Calif.) according to the manufacturer's instructions. DNA samples were analyzed in duplicate with the use of the ABI PRISM 7300 sequence-detection system (Applied Biosystems, Foster City, Calif.) with primers and dual-labeled fluorescent hybridization probes specific for the A. fumigatus 1,3-β-glucan synthase (FKS) gene (GenBank accession number U79728). The threshold cycle (Ct) of each sample was interpolated from a six-point standard curve generated by spiking naive mouse lungs with known amounts of conidia (102 to 107). An internal standard was amplified in separate reactions to correct for differences in DNA recovery. The resulting data was expressed as conidial equivalents (CE).
as §2

A. fumigatus = assay: Lung histopathology, pulmonary lesion counts in A. fumigatus-infected mice; assay type: in vivo, Aspergillus fumigatus
Experimental: Histopathological changes in lung tissue were evaluated and compared for four mice in each of the inhaled voriconazole, inhaled control, and intraperitoneal AmB groups. The inhaled control was aerosolized CAPTISOL® at a concentration of 100 mg/mL over 20 minutes. On day 8 post inoculation, animals were euthanized using halothane and 10% volume/volume formaldehyde was instilled into the lungs via the trachea. Lungs were then harvested and placed into 10% volume/volume formaldehyde. Tissue was fixed in formaldehyde for an adequate period of time followed by processing and embedding into paraffin wax. Coronal sections of the entire lung were obtained at a thickness of 4-6 μm and mounted on slides. Sections were stained with hematoxylin and eosin and viewed by light microscopy with a Zeiss AxioVision Imager at 10× magnification. Two investigators were blinded and independently evaluated each lung section. The extent of lung damage caused by invasive hyphae was recorded and quantified by counting and normalizing the number of gross lesions.
Normalization of the histopathology results was achieved by using the number of lung pieces (sections) on the slide as a denominator. The total number of lesions on the slide were counted and then divided by the number of pieces of tissue on that slide. This was done because the number of pieces of tissue per slide (again, all from the same cut of lung from the same animal) ranged from 4 to 9. For example, the normalized number of lesions would be 0.4 if 2 lesions were observed on a slide with 5 lung pieces. Similarly, the normalized value would be 0.14 if 1 lesion was observed on a slide with 7 lung pieces.

[6] = normalized lesions, listed as AmB

Molecule: OC[C@H]1O[C@@H]2O[C@H]3[C@H](O)[C@@H](O)[C@@H](O[C@H]4[C@H](O)[C@@H](O)[C@@H](O[C@H]5[C@H](O)[C@@H](O)[C@@H](O[C@H]6[C@H](O)[C@@H](O)[C@@H](O[C@H]7[C@H](O)[C@@H](O)[C@@H](O[C@H]1[C@H](O)[C@H]2O)O[C@@H]7CO)O[C@@H]6CO)O[C@@H]5CO)O[C@@H]4CO)O[C@@H]3CO [α-CD]
- water solubility at saturation [1]: about 14.5 % w/w

Molecule: CC[C@@H]([C@H](C)O)n1ncn(-c2ccc(N3CCN(c4ccc(OC[C@@H]5CO[C@@](Cn6cncn6)(c6ccc(F)cc6F)C5)cc4)CC3)cc2)c1=O [posaconazole]
- fungal burden as measured by quantitative real-time PCR [2]: significant reductions in fungal burden

Molecule: Amphotericin B deoxycholate
- Percent Survival ([3]; to Day +12): 23.1%
- Median Survival [3]: 7 days
- A - Day 8 Fungal Burden Determined by CFU, Mean (Aspergillus fumigatus [4]; Day +8): 4.37 log10 CFU
- A - Day 8 Fungal Burden Determined by CFU, Median (Aspergillus fumigatus [4]; Day +8): 4.33 log10 CFU
- A - Day 8 Fungal Burden Determined by CFU, Range (Aspergillus fumigatus [4]; Day +8): (3.59-5.07) log10 CFU
- B - Fungal Burden Determined by CFU for All Mice, Mean (Aspergillus fumigatus [4]; all samples, day 8 and day 12): 4.22 log10 CFU
- B - Fungal Burden Determined by CFU for All Mice, Median (Aspergillus fumigatus [4]; all samples, day 8 and day 12): 4.33 log10 CFU
- B - Fungal Burden Determined by CFU for All Mice, Range (Aspergillus fumigatus [4]; all samples, day 8 and day 12): (3.24-5.07) log10 CFU
- C - Conidial Equivalents Determined by qPCR, Mean (Aspergillus fumigatus [5]): 4.89 log10 conidial equivalents
- C - Conidial Equivalents Determined by qPCR, Median (Aspergillus fumigatus [5]): 4.95 log10 conidial equivalents
- C - Conidial Equivalents Determined by qPCR, Range (Aspergillus fumigatus [5]): (4.49-5.38) log10 conidial equivalents
- D - Conidial Equivalents per Gram of Lung Tissue Determined by Qpcr, Mean (Aspergillus fumigatus [5]; normalized for wet lung weight): 5.50 log10 conidial equivalents per
- D - Conidial Equivalents per Gram of Lung Tissue Determined by Qpcr, Median (Aspergillus fumigatus [5]; normalized for wet lung weight): 5.57 log10 conidial equivalents per
- D - Conidial Equivalents per Gram of Lung Tissue Determined by Qpcr, Range (Aspergillus fumigatus [5]; normalized for wet lung weight): (5.09-5.88) log10 conidial equivalents per
- lung histopathology findings (in words) (A. fumigatus; A. fumigatus-infected mice, aerosolized voriconazole, intraperitoneal amphotericin B): marked pulmonary disease, including necrosis and the presence of invasive hyphae, was observed
- pulmonary lesions normalized for the number of lung tissue pieces per slide, Mean (A. fumigatus; normalized lesions): 0.6
- pulmonary lesions normalized for the number of lung tissue pieces per slide, 25th Percentile (A. fumigatus; [6]): 0.13 and 0.1
- pulmonary lesions normalized for the number of lung tissue pieces per slide, 75th Percentile (A. fumigatus; [6]): 1.31 and 1.3
- pulmonary lesions normalized for the number of lung tissue pieces per slide, Maximum (A. fumigatus; [6]): 1.6
- pulmonary lesions normalized for the number of lung tissue pieces per slide, Median (A. fumigatus; [6]): 0.28 and 0.3
- pulmonary lesions normalized for the number of lung tissue pieces per slide, Minimum (A. fumigatus; [6]): 0.13 and 0.1
- pulmonary lesions in all available histological samples, 25th Percentile (A. fumigatus; number of lesions): 1.0
- pulmonary lesions in all available histological samples, 75th Percentile (A. fumigatus; number of lesions): 6.8
- pulmonary lesions in all available histological samples, Maximum (A. fumigatus; number of lesions): 8.0
- pulmonary lesions in all available histological samples, Mean (A. fumigatus; number of lesions): 3.3
- pulmonary lesions in all available histological samples, Median (A. fumigatus; number of lesions): 2.0
- pulmonary lesions in all available histological samples, Minimum (A. fumigatus; number of lesions): 1.0
